Laboratory results from patent publication US20080299270A1, “Fat Taste Receptors and Their Methods of Use” (NESTEC S.A., priority 2005, published 2008).

System: GPR40
Assay: two-bottle preference test of fat emulsions, GPR40 knockout vs normal mice
Assay type: in vivo, mouse
Conditions: GPR40 knockout mice compared to control mice; fat emulsion vs vehicle only, two drinking bottles
Source text: A preference ratio of 0.5 indicates indifference, above 0.5 indicates preference and below 0.5 indicates avoidance. Both preference and intake of fat are diminished in the GPR40 KO mice compared to control mice. The stars show the concentrations of lipids at which the differences of intake or preference between knockout and control mice are statistically significant. […] The fat emulsions contained corn oil, Intralipid, lauric acid or oleic acid. When compared with normal mice, the knockout animals drank less fat. […] Because mice can still detect fat in the absence of GPR40, another receptor, probably GPR120, must also play a role in fat taste signaling.

CCCCCCCC/C=C\CCCCCCCC(=O)O [oleic acid]
intake of fat emulsion: diminished
preference for fat emulsion: diminished

CCCCCCCCCCCC(=O)O [lauric acid]
intake of fat emulsion: diminished
preference for fat emulsion: diminished
